Experimental data: US20100056526A1, “HETEROMONOCYCLIC COMPOUND AND USE THEREOF” (Takeda Pharmaceutical Company Limited, priority 2006, published 2010)
Where a name gives a salt, the structure may show the parent alone. Read-outs that look alike come from different tables or passages of the source.

Tests used:
human AT1 receptor = biological target: T1, human AT1 receptor (Homo sapiens, UniProt P30556); assay: Binding assay using human AT1 receptor-expressing CHO-K1 cell membrane fraction ([125I]-angiotensin II); details: 22.5 pM [125I]-angiotensin II, 9 μg AT1 membrane, 1 hr room temperature; read-out: AT1 receptor binding inhibitory action (IC50 (nM))
T1 construct: expressed in transfected cells; host or cells: CHO-K1
T1 sequence (P30556 1-359): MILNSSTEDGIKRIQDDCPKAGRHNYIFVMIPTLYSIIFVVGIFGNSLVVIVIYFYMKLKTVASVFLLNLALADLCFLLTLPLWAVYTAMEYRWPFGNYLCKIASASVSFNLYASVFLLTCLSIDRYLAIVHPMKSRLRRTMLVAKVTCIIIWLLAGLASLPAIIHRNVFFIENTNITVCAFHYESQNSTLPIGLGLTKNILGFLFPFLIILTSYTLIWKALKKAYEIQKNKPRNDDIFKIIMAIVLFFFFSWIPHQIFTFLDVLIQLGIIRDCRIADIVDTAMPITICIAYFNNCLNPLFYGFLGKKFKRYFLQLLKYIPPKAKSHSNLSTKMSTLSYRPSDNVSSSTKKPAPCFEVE
Outline: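 CHO-K1 membranes stably expressing AT1 (9 μg) incubated with 22.5 pM [125I]-angiotensin II and compound in 50 mM Tris pH 7.4, 10 mM MgCl2, with or without 0.3 mg/mL fatty acid-free BSA, 1 hr at room temperature. Bound radioactivity counted after GF/C filtration; nonspecific binding with 1 μM CV-11974; IC50 calculated.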

PPARγ = biological target: T2, PPARγ (Homo sapiens, UniProt P37231); assay: Evaluation of PPARγ activating action (luciferase reporter in PPARγ:RXRα:4ERPP/CHO-K1 cells); assay type: cell-based; details: CHO-K1, 24 h, read-out: PPARγ activating action (activation % (10^−6 M))
T2 construct: expressed in transfected cells; host or cells: CHO-K1
T2 sequence (P37231 1-477 isoform P37231-2): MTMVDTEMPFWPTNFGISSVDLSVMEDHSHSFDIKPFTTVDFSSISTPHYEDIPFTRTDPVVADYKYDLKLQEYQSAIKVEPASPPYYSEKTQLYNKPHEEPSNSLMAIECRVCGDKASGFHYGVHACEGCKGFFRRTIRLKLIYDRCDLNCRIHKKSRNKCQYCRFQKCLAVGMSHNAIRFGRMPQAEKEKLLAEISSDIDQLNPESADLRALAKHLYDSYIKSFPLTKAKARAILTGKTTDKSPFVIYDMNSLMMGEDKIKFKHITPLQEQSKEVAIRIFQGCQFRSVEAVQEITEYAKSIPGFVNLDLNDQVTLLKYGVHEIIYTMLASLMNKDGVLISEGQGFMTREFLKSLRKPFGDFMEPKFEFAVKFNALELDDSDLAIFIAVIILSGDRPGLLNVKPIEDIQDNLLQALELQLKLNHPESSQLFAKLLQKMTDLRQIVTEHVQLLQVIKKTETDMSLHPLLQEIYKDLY
T2 sequence (P19793 1-462 partner): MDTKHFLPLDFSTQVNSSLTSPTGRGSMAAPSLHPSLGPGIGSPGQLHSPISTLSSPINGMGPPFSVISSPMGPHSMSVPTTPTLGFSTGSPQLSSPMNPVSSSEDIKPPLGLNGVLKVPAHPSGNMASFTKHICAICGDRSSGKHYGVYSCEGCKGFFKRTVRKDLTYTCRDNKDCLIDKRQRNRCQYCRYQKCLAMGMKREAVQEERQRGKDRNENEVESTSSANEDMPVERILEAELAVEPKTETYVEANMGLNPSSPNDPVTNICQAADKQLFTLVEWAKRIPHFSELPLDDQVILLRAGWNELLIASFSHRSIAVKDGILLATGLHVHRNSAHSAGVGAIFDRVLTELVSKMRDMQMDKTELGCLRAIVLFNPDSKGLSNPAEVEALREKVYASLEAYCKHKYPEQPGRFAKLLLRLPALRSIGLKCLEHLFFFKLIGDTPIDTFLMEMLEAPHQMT
Outline: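 CHO-K1 cells stably carrying PPARγ, RXRα and a 4ERPP luciferase reporter were treated with compound for 1 day at 37 °C in F12 medium with 0.1% fatty acid-free BSA. Luciferase activity was read and scaled between no compound (0%) and reference agonist compound X at 1 μM (100%).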

[1] = test compound 10^−6 M, luciferase activity relative to control compound X (1 μM) = 100%, non-administration group = 0%

| Structure (SMILES) | IC50 (human AT1 receptor) | activation at 1 µM (PPARγ) | activation at 1 µM (PPARγ; [1]) |
| --- | --- | --- | --- |
| CCCc1nc(C)c(Oc2ccc(OC)cc2)c(=O)n1Cc1ccc(-c2ccccc2-c2noc(O)n2)cc1 [Example 476, 5-(4-methoxyphenoxy)-6-methyl-3-{[2′-(5-oxo-4,5-dihydro-1,2,4-oxadiazol-3-yl)biphenyl-4-yl]methyl}-2-propylpyrimidin-4(3H)-one potassium salt] | 2.1 nM | 18.5% |  |
| CCCc1nc(CC)n(-c2ccc(OC)cc2)c(=O)c1Cc1ccc(-c2ccccc2-c2noc(O)n2)cc1 [Example 313, 2-ethyl-3-(4-methoxyphenyl)-5-{[2′-(5-oxo-4,5-dihydro-1,2,4-oxadiazol-3-yl)biphenyl-4-yl]methyl}-6-propylpyrimidin-4(3H)-one potassium salt] | 1.5 nM | 31% |  |
| CCCc1nc(C)n(-c2ccc3c(c2)CC(C)O3)c(=O)c1Cc1ccc(-c2ccccc2-c2noc(=O)[nH]2)cc1 (stereo not drawn) [Example 235, 2-methyl-3-(2-methyl-2,3-dihydro-1-benzofuran-5-yl)-5-{[2′-(5-oxo-4,5-dihydro-1,2,4-oxadiazol-3-yl)biphenyl-4-yl]methyl}-6-propylpyrimidin-4(3H)-one] | 1.5 nM |  | 27.6% |
| CCCc1nc(C)n(-c2ccc(OC(C)C)nc2)c(=O)c1Cc1ccc(-c2ccccc2-c2noc(=O)[nH]2)cc1 [Example 325, 3-(6-isopropoxypyridin-3-yl)-2-methyl-5-{[2′-(5-oxo-4,5-dihydro-1,2,4-oxadiazol-3-yl)biphenyl-4-yl]methyl}-6-propylpyrimidin-4(3H)-one] | 3.4 nM |  | 30.2% |
| CCCc1nc(C)n(-c2ccc(OC3CC3)cc2)c(=O)c1Cc1ccc(-c2ccccc2-c2noc(=O)[nH]2)cc1 [Example 265, 3-[4-(cyclopropyloxy)phenyl]-2-methyl-5-{[2′-(5-oxo-4,5-dihydro-1,2,4-oxadiazol-3-yl)biphenyl-4-yl]methyl}-6-propylpyrimidin-4(3H)-one] | 1.7 nM |  | 27.8% |
| CCCCc1nc(C)n(Cc2ccc(OC)nc2)c(=O)c1Cc1ccc(-c2ccccc2-c2noc(=O)[nH]2)cc1 [Example 71, 6-butyl-3-[(6-methoxypyridin-3-yl)methyl]-2-methyl-5-{[2′-(5-oxo-4,5-dihydro-1,2,4-oxadiazol-3-yl)biphenyl-4-yl]methyl}pyrimidin-4(3H)-one] | 1.8 nM |  | 46.3% |
| CCCc1nc(CC)n(-c2ccc(OC3CCC(=O)CC3)cc2)c(=O)c1Cc1ccc(-c2ccccc2-c2noc(=O)[nH]2)cc1 [Example 416, 2-ethyl-3-{4-[(4-oxocyclohexyl)oxy]phenyl}-5-{[2′-(5-oxo-4,5-dihydro-1,2,4-oxadiazol-3-yl)biphenyl-4-yl]methyl}-6-propylpyrimidin-4(3H)-one] | 1.2 nM |  | 53.5% |
| CCCCc1nc(C2CC2)n(-c2ccccc2)c(=O)c1Cc1ccc(-c2ccccc2-c2noc(=O)[nH]2)cc1 [Example 310, 6-butyl-2-cyclopropyl-5-{[2′-(5-oxo-4,5-dihydro-1,2,4-oxadiazol-3-yl)biphenyl-4-yl]methyl}-3-phenylpyrimidin-4(3H)-one potassium salt] | 1.9 nM | 27.1% |  |
| CCCc1nc(CC)c(-c2ccc(OC(C)(C)CO)cc2)c(=O)n1Cc1ccc(-c2ccccc2-c2noc(=O)[nH]2)cc1F [Example 511, 6-ethyl-3-{[3-fluoro-2′-(5-oxo-4,5-dihydro-1,2,4-oxadiazol-3-yl)biphenyl-4-yl]methyl}-5-[4-(2-hydroxy-1,1-dimethylethoxy)phenyl]-2-propylpyrimidin-4(3H)-one] | 1.3 nM |  | 31% |
| CCCCc1nc(C2CC2)c(-c2ccc(OC(C)(C)CO)cc2)c(=O)n1Cc1ccc(-c2ccccc2-c2noc(O)n2)cc1 [Example 510, 2-butyl-6-cyclopropyl-5-[4-(2-hydroxy-1,1-dimethylethoxy)phenyl]-3-{[2′-(5-oxo-4,5-dihydro-1,2,4-oxadiazol-3-yl)biphenyl-4-yl]methyl}pyrimidin-4(3H)-one] | 2.3 nM |  | 24.4% |
| CCCCc1nc(OC)n(Cc2ccccc2)c(=O)c1Cc1ccc(-c2ccccc2-c2noc(=O)[nH]2)cc1 [Example 107, 3-benzyl-6-butyl-2-methoxy-5-{[2′-(5-oxo-4,5-dihydro-1,2,4-oxadiazol-3-yl)biphenyl-4-yl]methyl}pyrimidin-4(3H)-one] | 2 nM |  | 60% |
| CCCc1nc(C)n(-c2ccc(OC(C)C)cc2)c(=O)c1Cc1ccc(-c2ccccc2-c2noc(=O)[nH]2)cc1Cl [Example 396, 5-{[3-chloro-2′-(5-oxo-4,5-dihydro-1,2,4-oxadiazol-3-yl)biphenyl-4-yl]methyl}-3-(4-isopropoxyphenyl)-2-methyl-6-propylpyrimidin-4(3H)-one] | 2.2 nM |  | 50.6% |
| CCCc1nc(CC)c(Oc2cccc(OC)c2)c(=O)n1Cc1ccc(-c2ccccc2-c2noc(O)n2)cc1 [Example 488, 6-ethyl-5-(3-methoxyphenoxy)-3-{[2′-(5-oxo-4,5-dihydro-1,2,4-oxadiazol-3-yl)biphenyl-4-yl]methyl}-2-propylpyrimidin-4(3H)-one potassium salt] | 1.9 nM | 16.7% |  |
| CCCc1nc(CC)n(-c2ccc(OC3(CO)CCCC3)cc2)c(=O)c1Cc1ccc(-c2ccccc2-c2noc(=O)[nH]2)cc1 [Example 390, 2-ethyl-3-(4-{[1-(hydroxymethyl)cyclopentyl]oxy}phenyl)-5-{[2′-(5-oxo-4,5-dihydro-1,2,4-oxadiazol-3-yl)biphenyl-4-yl]methyl}-6-propylpyrimidin-4(3H)-one] | 1.2 nM |  | 19.9% |
| CCCCc1nc(C)n(Cc2nc3ccccc3s2)c(=O)c1Cc1ccc(-c2ccccc2-c2noc(=O)[nH]2)cc1 [Example 64, 3-(1,3-benzothiazol-2-ylmethyl)-6-butyl-2-methyl-5-{[2′-(5-oxo-4,5-dihydro-1,2,4-oxadiazol-3-yl)biphenyl-4-yl]methyl}pyrimidin-4(3H)-one] | 2 nM |  | 59.9% |
| CCCCc1nc(C)n(-c2ccc3c(c2)CC(C)(C)O3)c(=O)c1Cc1ccc(-c2ccccc2-c2nsc(=O)[nH]2)cc1 [Example 128, 6-butyl-3-(2,2-dimethyl-2,3-dihydro-1-benzofuran-5-yl)-2-methyl-5-{[2′-(5-oxo-4,5-dihydro-1,2,4-thiadiazol-3-yl)biphenyl-4-yl]methyl}pyrimidin-4(3H)-one] | 1.9 nM |  | 24.3% |
| CCCc1nc(C)n(-c2ccc(O[C@@H]3C[C@@H](C)O[C@@H](C)C3)cc2)c(=O)c1Cc1ccc(-c2ccccc2-c2noc(=O)[nH]2)cc1F [Example 338, 3-(4-{[(2R,4s,6S)-2,6-dimethyltetrahydro-2H-pyran-4-yl]oxy}phenyl)-5-{[3-fluoro-2′-(5-oxo-4,5-dihydro-1,2,4-oxadiazol-3-yl)biphenyl-4-yl]methyl}-2-methyl-6-propylpyrimidin-4(3H)-one] | 1.8 nM |  | 32.5% |
| C#CCC(C)Oc1ccc(-n2c(C)nc(CCC)c(Cc3ccc(-c4ccccc4-c4noc(=O)[nH]4)cc3)c2=O)cc1 (stereo not drawn) [Example 324, 2-methyl-3-{4-[(1-methylbut-3-yn-1-yl)oxy]phenyl}-5-{[2′-(5-oxo-4,5-dihydro-1,2,4-oxadiazol-3-yl)biphenyl-4-yl]methyl}-6-propylpyrimidin-4(3H)-one] | 1.7 nM |  | 45.2% |
